Results taken from patent US20200138854A1, “Method of Detecting and Quantifying Bile Acid from Saliva” (Ironwood Pharmaceuticals, Inc., priority 2017, published 2020).

Legend:
[1] = system: conscious, pentagastrin-stimulated fistula dog; details: cited from earlier work
[2] = system: intragastric pH; details: cited from earlier work
[3] = Frozen (−20° C.) short-term stability in cholestyramine-treated human saliva; details: human
Procedure, shortened: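 Cholestyramine-treated human saliva was spiked with each analyte at QC-LLOQ, QC-Low, QC-Mid and QC-High levels and stored at −20° C. After 1 day and 2 days of storage, samples were extracted in replicates of four and analysed.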

[4] = in vivo, 3 h
[5] = Long-term (1 month at −20° C. and −80° C.) stability in untreated human saliva

Structure (SMILES)	intragastric pH [1]	pH elevation compared with ranitidine and omeprazole [1]	effectiveness in comparison with the standard dose of omeprazole ([2]; 50 mg or 100 mg twice daily, Day one of treatment)	potency in comparison with the standard dose of omeprazole ([2]; 50 mg or 100 mg twice daily, following repeated daily administration)	intragastric pH ([2]; single 50 mg oral dose)	Short-term stability in cholestyramine-treated human saliva [3]	Stability in Treated Human Saliva [3] [days]	Concentration in human saliva samples [4] [ng/mL]	Long-term stability in untreated human saliva ([5]; at 80° C. (sic))	Stability in Untreated Human Saliva ([5]; at −20° C.) [Month]	Stability in Untreated Human Saliva ([5]; at −80° C.) [Month]
COC(=O)Nc1cccc(C)c1CNc1cccn2c(C)c(C)nc12 [BY841, (8-(2-methoxycarbonylamino-6-methyl-phenylmethylamino)-2,3-dimethyl-imidazo [1,2-a]-pyridine)]	≤ 6	superior to both ranitidine and omeprazole	markedly more effective	at least as potent as omeprazole	about 6	–	–	–	–	–	–
C[C@H](CCC(=O)O)[C@H]1CC[C@H]2[C@@H]3CC[C@@H]4C[C@H](O)CC[C@]4(C)[C@H]3C[C@H](O)[C@]12C [Deoxycholic Acid, Deoxycholic acid]	–	–	–	–	–	up to 2 days	2	1.65	up to 1 month	1	1
